# In PubChem BioAssay (NCI):
#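 Five concentrations, 48 hours, 96-well plates. Definition used: TGI = concentration required for complete inhibition of growth.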
# Assays:
# Test in all cases: NCI tumour cell line growth inhibition, 48 h
# HOP-92 NSCLC = tested on: HOP-92 NSCLC
# SK-MEL-2 melanoma = tested on: SK-MEL-2 melanoma
# UACC-62 melanoma = tested on: UACC-62 melanoma
# SNB-75 CNS = tested on: SNB-75 CNS
# SK-MEL-5 melanoma = tested on: SK-MEL-5 melanoma
# NCI-H226 lung = tested on: NCI-H226 lung
# M14 melanoma = tested on: M14 melanoma
# COLO 205 colon = tested on: COLO 205 colon
# KM12 colon = tested on: KM12 colon
# IGROV1 ovarian = tested on: IGROV1 ovarian
# EKVX NSCLC = tested on: EKVX NSCLC
# CCRF-CEM leukemia = tested on: CCRF-CEM leukemia
# MALME-3M melanoma = tested on: MALME-3M melanoma
# SN12C renal = tested on: SN12C renal
# OVCAR-8 ovarian = tested on: OVCAR-8 ovarian
# SNB-19 CNS = tested on: SNB-19 CNS
# DLD-1 colon = tested on: DLD-1 colon
# OVCAR-3 ovarian = tested on: OVCAR-3 ovarian
# OVCAR-5 ovarian = tested on: OVCAR-5 ovarian
# TK-10 renal = tested on: TK-10 renal
# RPMI-8226 leukemia = tested on: RPMI-8226 leukemia
# HOP-18 NSCLC = tested on: HOP-18 NSCLC
# ACHN renal = tested on: ACHN renal
# OVCAR-4 ovarian = tested on: OVCAR-4 ovarian
# 786-0 renal = tested on: 786-0 renal
# U251 CNS = tested on: U251 CNS
# HT29 colon = tested on: HT29 colon
# HCC-2998 colon = tested on: HCC-2998 colon
# DMS 273 small cell lung = tested on: DMS 273 small cell lung
# SK-OV-3 ovarian = tested on: SK-OV-3 ovarian
# UACC-257 melanoma = tested on: UACC-257 melanoma
# XF 498 CNS = tested on: XF 498 CNS
# A498 renal = tested on: A498 renal
# UO-31 renal = tested on: UO-31 renal
# SF-539 CNS = tested on: SF-539 CNS
# DMS 114 small cell lung = tested on: DMS 114 small cell lung
# NCI-H23 lung = tested on: NCI-H23 lung
# A549 NSCLC = tested on: A549 NSCLC
# RXF-631 renal = tested on: RXF-631 renal
# SK-MEL-28 melanoma = tested on: SK-MEL-28 melanoma
# SNB-78 CNS = tested on: SNB-78 CNS
# HCT-116 colon = tested on: HCT-116 colon
# SF-268 CNS = tested on: SF-268 CNS
# HOP-62 NSCLC = tested on: HOP-62 NSCLC
# LOX IMVI melanoma = tested on: LOX IMVI melanoma
# CAKI-1 renal = tested on: CAKI-1 renal
# K-562 leukemia = tested on: K-562 leukemia
# MOLT-4 leukemia = tested on: MOLT-4 leukemia
# SW-620 colon = tested on: SW-620 colon
# LXFL 529 NSCLC = tested on: LXFL 529 NSCLC
# NCI-H522 lung = tested on: NCI-H522 lung
# SR leukemia = tested on: SR leukemia
# SF-295 CNS = tested on: SF-295 CNS
# NCI-H460 lung = tested on: NCI-H460 lung
# M19-MEL melanoma = tested on: M19-MEL melanoma
# KM20L2 colon = tested on: KM20L2 colon
# RXF 393 renal = tested on: RXF 393 renal
# HCT-15 colon = tested on: HCT-15 colon
# HL-60(TB) leukemia = tested on: HL-60(TB) leukemia
smiles,measurement,setting,value
C#CCOCn1cnc2c(Cl)ncnc21,TGI,HOP-92 NSCLC,> 100 µM
same,TGI,SK-MEL-2 melanoma,> 100 µM
same,TGI,UACC-62 melanoma,> 100 µM
same,TGI,SNB-75 CNS,> 100 µM
same,TGI,SK-MEL-5 melanoma,> 100 µM
same,TGI,NCI-H226 lung,> 100 µM
same,TGI,M14 melanoma,> 100 µM
same,TGI,COLO 205 colon,> 100 µM
same,TGI,KM12 colon,> 100 µM
same,TGI,IGROV1 ovarian,> 100 µM
same,TGI,EKVX NSCLC,> 100 µM
same,TGI,CCRF-CEM leukemia,> 100 µM
same,TGI,MALME-3M melanoma,> 100 µM
same,TGI,SN12C renal,> 100 µM
same,TGI,OVCAR-8 ovarian,> 100 µM
same,TGI,SNB-19 CNS,> 100 µM
same,TGI,DLD-1 colon,> 100 µM
same,TGI,OVCAR-3 ovarian,> 100 µM
same,TGI,OVCAR-5 ovarian,> 100 µM
same,TGI,TK-10 renal,> 100 µM
same,TGI,RPMI-8226 leukemia,> 100 µM
same,TGI,HOP-18 NSCLC,> 100 µM
same,TGI,ACHN renal,> 100 µM
same,TGI,OVCAR-4 ovarian,> 100 µM
same,TGI,786-0 renal,> 100 µM
same,TGI,U251 CNS,> 100 µM
same,TGI,HT29 colon,> 100 µM
same,TGI,HCC-2998 colon,> 100 µM
same,TGI,DMS 273 small cell lung,> 100 µM
same,TGI,SK-OV-3 ovarian,> 100 µM
same,TGI,UACC-257 melanoma,> 100 µM
same,TGI,XF 498 CNS,> 100 µM
same,TGI,A498 renal,> 100 µM
same,TGI,UO-31 renal,> 100 µM
same,TGI,SF-539 CNS,> 100 µM
same,TGI,DMS 114 small cell lung,> 100 µM
same,TGI,NCI-H23 lung,> 100 µM
same,TGI,A549 NSCLC,> 100 µM
same,TGI,RXF-631 renal,> 100 µM
same,TGI,SK-MEL-28 melanoma,> 100 µM
same,TGI,SNB-78 CNS,> 100 µM
same,TGI,HCT-116 colon,> 100 µM
same,TGI,SF-268 CNS,> 100 µM
same,TGI,HOP-62 NSCLC,> 100 µM
same,TGI,LOX IMVI melanoma,> 100 µM
same,TGI,CAKI-1 renal,> 100 µM
same,TGI,K-562 leukemia,> 100 µM
same,TGI,MOLT-4 leukemia,> 100 µM
same,TGI,SW-620 colon,> 100 µM
same,TGI,LXFL 529 NSCLC,> 100 µM
same,TGI,NCI-H522 lung,> 100 µM
same,TGI,SR leukemia,> 100 µM
same,TGI,SF-295 CNS,> 100 µM
same,TGI,NCI-H460 lung,> 100 µM
same,TGI,M19-MEL melanoma,> 100 µM
Cc1ccc(N=Cc2ccc3c(c2)OCO3)cc1C,TGI,HOP-92 NSCLC,> 100 µM
same,TGI,SK-MEL-2 melanoma,> 100 µM
same,TGI,UACC-62 melanoma,> 100 µM
same,TGI,SNB-75 CNS,> 100 µM
same,TGI,SK-MEL-5 melanoma,> 100 µM
same,TGI,KM20L2 colon,> 100 µM
same,TGI,NCI-H226 lung,> 100 µM
same,TGI,M14 melanoma,> 100 µM
same,TGI,COLO 205 colon,> 100 µM
same,TGI,KM12 colon,> 100 µM
same,TGI,IGROV1 ovarian,> 100 µM
same,TGI,RXF 393 renal,> 100 µM
same,TGI,EKVX NSCLC,> 100 µM
same,TGI,HCT-15 colon,> 100 µM
same,TGI,CCRF-CEM leukemia,> 100 µM
same,TGI,MALME-3M melanoma,> 100 µM
same,TGI,SN12C renal,> 100 µM
same,TGI,OVCAR-8 ovarian,> 100 µM
same,TGI,SNB-19 CNS,> 100 µM
same,TGI,DLD-1 colon,> 100 µM
same,TGI,OVCAR-3 ovarian,> 100 µM
same,TGI,OVCAR-5 ovarian,> 100 µM
same,TGI,TK-10 renal,> 100 µM
same,TGI,RPMI-8226 leukemia,> 100 µM
same,TGI,HOP-18 NSCLC,> 100 µM
same,TGI,ACHN renal,> 100 µM
same,TGI,786-0 renal,> 100 µM
same,TGI,HT29 colon,> 100 µM
same,TGI,DMS 273 small cell lung,> 100 µM
same,TGI,SK-OV-3 ovarian,> 100 µM
same,TGI,XF 498 CNS,> 100 µM
same,TGI,A498 renal,> 100 µM
same,TGI,UO-31 renal,> 100 µM
same,TGI,SF-539 CNS,> 100 µM
same,TGI,HL-60(TB) leukemia,> 100 µM
same,TGI,NCI-H23 lung,> 100 µM
same,TGI,A549 NSCLC,> 100 µM
same,TGI,RXF-631 renal,> 100 µM
same,TGI,SK-MEL-28 melanoma,> 100 µM
same,TGI,SNB-78 CNS,> 100 µM
same,TGI,HCT-116 colon,> 100 µM
same,TGI,SF-268 CNS,> 100 µM
same,TGI,LOX IMVI melanoma,> 100 µM
same,TGI,CAKI-1 renal,> 100 µM
same,TGI,MOLT-4 leukemia,> 100 µM
same,TGI,SW-620 colon,> 100 µM
same,TGI,LXFL 529 NSCLC,> 100 µM
same,TGI,NCI-H522 lung,> 100 µM
same,TGI,SR leukemia,> 100 µM
same,TGI,SF-295 CNS,> 100 µM
same,TGI,NCI-H460 lung,> 100 µM
same,TGI,M19-MEL melanoma,> 100 µM
CSc1ccc(C2OC(=O)c3ccccc32)c2ccccc12 (stereo not given),TGI,HOP-92 NSCLC,> 100 µM
same,TGI,SK-MEL-2 melanoma,> 100 µM
same,TGI,UACC-62 melanoma,> 100 µM
same,TGI,SNB-75 CNS,61.2 µM
same,TGI,SK-MEL-5 melanoma,> 100 µM
same,TGI,KM20L2 colon,> 100 µM
same,TGI,M14 melanoma,> 100 µM
same,TGI,COLO 205 colon,> 100 µM
same,TGI,KM12 colon,> 100 µM
same,TGI,IGROV1 ovarian,> 100 µM
same,TGI,RXF 393 renal,> 100 µM
same,TGI,EKVX NSCLC,> 100 µM
same,TGI,HCT-15 colon,> 100 µM
same,TGI,CCRF-CEM leukemia,> 100 µM
same,TGI,MALME-3M melanoma,> 100 µM
same,TGI,SN12C renal,> 100 µM
same,TGI,OVCAR-8 ovarian,> 100 µM
same,TGI,SNB-19 CNS,> 100 µM
same,TGI,DLD-1 colon,> 100 µM
same,TGI,OVCAR-5 ovarian,> 100 µM
same,TGI,RPMI-8226 leukemia,> 100 µM
same,TGI,HOP-18 NSCLC,> 100 µM
same,TGI,ACHN renal,> 100 µM
same,TGI,OVCAR-4 ovarian,> 100 µM
same,TGI,786-0 renal,> 100 µM
same,TGI,U251 CNS,> 100 µM
same,TGI,HT29 colon,> 100 µM
same,TGI,HCC-2998 colon,> 100 µM
same,TGI,SK-OV-3 ovarian,> 100 µM
same,TGI,UACC-257 melanoma,> 100 µM
same,TGI,XF 498 CNS,> 100 µM
same,TGI,UO-31 renal,> 100 µM
same,TGI,SF-539 CNS,> 100 µM
same,TGI,DMS 114 small cell lung,> 100 µM
same,TGI,HL-60(TB) leukemia,> 100 µM
same,TGI,A549 NSCLC,> 100 µM
same,TGI,RXF-631 renal,> 100 µM
same,TGI,SK-MEL-28 melanoma,> 100 µM
same,TGI,SNB-78 CNS,> 100 µM
same,TGI,HCT-116 colon,> 100 µM
same,TGI,SF-268 CNS,> 100 µM
same,TGI,HOP-62 NSCLC,> 100 µM
same,TGI,LOX IMVI melanoma,> 100 µM
same,TGI,CAKI-1 renal,> 100 µM
same,TGI,K-562 leukemia,> 100 µM
same,TGI,MOLT-4 leukemia,> 100 µM
same,TGI,SW-620 colon,> 100 µM
same,TGI,LXFL 529 NSCLC,> 100 µM
same,TGI,NCI-H522 lung,> 100 µM
same,TGI,SR leukemia,> 100 µM
same,TGI,SF-295 CNS,> 100 µM
same,TGI,NCI-H460 lung,> 100 µM
same,TGI,M19-MEL melanoma,> 100 µM
